Peptide text beside a SMILES is read from it.

The target in one data set is T1, CK2α (Homo sapiens, UniProt P68400).
T1 construct: purchased GenScript
Put plainly: Surface plasmon resonance (Biacore assay), CK2α. Format: binding. The following applies: SPR, peptide immobilized, CK2α flowed. The source says: Figure 2 MOTS-c directly binds and activates CK2 in cell-free systems (A–C) Dot blot assays with (A) CK2 complex (contains both CK2α and CK2β subunits) immobilized, MOTS-c flowed over the membrane, and detected by MOTS-c antibody. (B–C) MOTS-c immobilized, CK2 complex flowed over the membrane, and detected by CK2α (B) and CK2β (C) antibodies. (D) CK2α or CK2β immobilized, MOTS-c flowed over the membrane, and detected by MOTS-c antibody. FO, flow over; IB, immunoblotting. (E): Surface plasmon resonance (Biacore assay) of MOTS-c (10 μg/mL) and CK2α (2.5 nM, 5.0 nM, 10 nM, and 20 nM). MOTS-c was immobilized on the sensor chip and CK2α flowed over the sensor chip. KD, dissociation constant. (F) Molecular docking simulation of the binding between MOTS-c and CK2α by using AlphaFold2. (G) CK2 activity assessed by kinase activity assay with/without MOTS-c in cell-free condition. […]
The kinetics of MOTS-c WT/K14Q (GenScript) and CK2α (GenScript)/β (IBL) were assessed by using surface plasmon resonance (Biacore T200, Cytiva). […] Then, since we detected the binding signal only with CK2α, CK2α was flowed (30 μL/min) over the sensor chip at 2.5 nM, 5.0 nM, 10 nM, and 20 nM in running buffer (0.01M HEPES, 0.15 M NaCl, 0.3 mM EDTA, and 0.05% tween). After each concentration of CK2α was assessed, CK2α was removed using 4 mM and 5 mM Sodium Hydroxide for MOTS-c and K14Q MOTS-c, respectively. […]
For orientation: Surface plasmon resonance follows binding to a sensor surface in real time, without labels.

Data set [1] can be described thus: Plasma MOTS-c levels after MOTS-c administration. Format: in vivo, mouse (C57BL/6J). The following applies: single IP 7.5 mg/kg, young mice, n = 5 per time point. How it is done:
Figure 3 MOTS-c modulates CK2 activity in a tissue-specific manner (A) Experimental design of a single MOTS-c administration (7.5 mg/kg) experiment in young mice (n = 5 per time point). (B) Plasma MOTS-c levels after MOTS-c administration. ∗: p < 0.05 versus time 0. (C) Quantification of CK2 activity assessed by western blotting in each tissue shown in ([…]). (E–F) CK2 activity assessed by western blotting with p-CK2 substrate antibody in gastrocnemius muscle (D), epididymal fat (E), and liver (F) after MOTS-c administration. ∗p < 0.05, ∗∗p < 0.01 versus time 0 in same tissue. (G–I) MOTS-c detection following CK2α immunoprecipitation (IP) in gastrocnemius muscle (G), epididymal fat (H), and liver (I) 30 min after MOTS-c administration (7.5 mg/kg). The "-" indicates tissues from non-MOTS-c administered mice, while the "+" indicates tissues from MOTS-c administered mice. (J–K) CK2 activity after 10 min MOTS-c treatment (10 μM) in differentiated skeletal muscle (J) and adipocyte (K). Data are represented as mean ± SEM for (B, C, J, and K).
Acute MOTS-c administration experiment: Male C57BL/6J mice at 10–12 weeks of age were randomly assigned to one of the experimental time points: 0 min, 15 min, 30 min, or 180 min. MOTS-c ([…]) was administered by intraperitoneal injection. At each time point, plasma was collected under anesthesia with isoflurane. […]

Data set [2] has as its system skeletal muscle (gastrocnemius) glucose uptake. The experiment in a line: In vivo skeletal muscle 2-deoxyglucose (2DG) uptake. On the set-up: species or system mouse (C57BL/6J). How it is done:
2-deoxyglucose (2-DG) uptake experiment: Male C57BL/6J mice at 14–15 weeks of age were received sham injection (injected nothing) for seven days before the experiment to acclimated to the invasive stimulus by the injection. A selective CK2 inhibitor CX-4945 (MCE) was dissolved in 0.9% saline containing 5% DMSO. After 120 min of fasting, mice were intraperitoneally injected with a CK2 inhibitor at 25 mg/kg or vehicle.[45] Two hours later, mice were injected insulin at 0.75 U/kg (MilliporeSigma) and MOTS-c at 7.5 mg/kg (GenScript) or sterilized water. Then 10 min later, 5 μg of 2DG (Sigma-Aldrich) was injected.[46] Mice were euthanized 45 min after 2DG injection and gastrocnemius muscle was collected. The collected samples were stored at −80°C for further analyses. The entire gastrocnemius muscle was used for the analysis to avoid potential bias.
To measure glucose uptake into mouse skeletal muscle, 2-DG uptake measurement kit was used (Cosmo Bio). Gastrocnemius muscle samples were homogenized in 10 mM tris-HCL (pH. 8.1) and then incubated at 95°C for 15 min. Samples were centrifuged for 15 min at 17,800 g (4°C), and the supernatant was diluted in 10 mM tris-HCl.[66] Diluted samples ([…]) were used for further analysis according to the manufacturer’s instructions (Cosmo Bio Co.).

T1 sequence (P68400 whole entry): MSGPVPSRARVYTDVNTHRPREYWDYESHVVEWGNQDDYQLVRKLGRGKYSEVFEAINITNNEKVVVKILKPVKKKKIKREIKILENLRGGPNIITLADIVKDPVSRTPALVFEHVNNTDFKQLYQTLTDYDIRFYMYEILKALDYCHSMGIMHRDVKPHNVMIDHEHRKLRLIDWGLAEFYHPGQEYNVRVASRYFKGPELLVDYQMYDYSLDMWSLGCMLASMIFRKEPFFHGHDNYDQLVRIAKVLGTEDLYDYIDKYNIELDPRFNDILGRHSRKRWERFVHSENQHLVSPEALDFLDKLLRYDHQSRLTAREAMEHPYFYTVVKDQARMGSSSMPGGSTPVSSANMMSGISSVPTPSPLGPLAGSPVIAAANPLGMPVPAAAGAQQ

In the case of `CC[C@H](C)[C@H](NC(=O)[C@H](Cc1ccc(O)cc1)NC(=O)CNC(=O)[C@H](CCSC)NC(=O)[C@H](CCC(=O)O)NC(=O)[C@H](CCC(N)=O)NC(=O)[C@H](Cc1c[nH]c2ccccc12)NC(=O)[C@H](CCCNC(=N)N)NC(=O)[C@@H](N)CCSC)C(=O)N[C@@H](Cc1ccccc1)C(=O)N[C@@H](Cc1ccc(O)cc1)C(=O)N1CCC[C@H]1C(=O)N[C@@H](CCCNC(=N)N)C(=O)N[C@@H](CCCCN)C(=O)N[C@@H](CC(C)C)C(=O)N[C@@H](CCCNC(=N)N)C(=O)O` [MOTS-c] (H-MRWQEMGYIFYPRKLR-OH), on CK2α, the “Reciprocal of KD” value amounted to 1.0 nM⁻¹. The “MOTS-c levels in plasma” value in data set [1] was “increased MOTS-c levels in plasma”.

For the compound `CC[C@H](C)[C@H](NC(=O)[C@H](Cc1ccc(O)cc1)NC(=O)CNC(=O)[C@H](CCSC)NC(=O)[C@H](CCC(=O)O)NC(=O)[C@H](CCC(N)=O)NC(=O)[C@H](Cc1c[nH]c2ccccc12)NC(=O)[C@H](CCCNC(=N)N)NC(=O)[C@@H](N)CCSC)C(=O)N[C@@H](Cc1ccccc1)C(=O)N[C@@H](Cc1ccc(O)cc1)C(=O)N1CCC[C@H]1C(=O)N[C@@H](CCCNC(=N)N)C(=O)N[C@@H](CCC(N)=O)C(=O)N[C@@H](CC(C)C)C(=O)N[C@@H](CCCNC(=N)N)C(=O)O` [K14Q MOTS-c] (H-MRWQEMGYIFYPRQLR-OH), at CK2α, the “Reciprocal of KD” value was found to be 0.062 nM⁻¹.

As for `O=C(O)c1ccc2c(c1)nc(Nc1cccc(Cl)c1)c1ccncc12` [CX-4945], the “Muscle glucose uptake, CK2 inhibitor co-administered with MOTS-c” value in data set [2] (CX-4945 25 mg/kg + MOTS-c 7.5 mg/kg) is “prevented the increase in muscle glucose uptake by MOTS-c”. In addition, in data set [2] (CX-4945 25 mg/kg IP 2 h before insulin 0.75 U/kg, p = 0.053, n = 10-11 per group), the “Muscle glucose uptake with CK2 inhibitor alone” value is on record as “decreased muscle glucose uptake (p = 0.053)”.

(Values after PMC11570452, “MOTS-c modulates skeletal muscle function by directly binding and activating CK2” (iScience, 2024).)
